Three compounds from patent US7605119B2, “Memory enhancing protein method” (The Research Foundation of State University of New York, priority 2000, dated 2009) can be followed below.

Residues, ends and D or L forms follow the SMILES beside them.

For one test, the system named is LTP maintenance. The experiment in a line: Reversal of LTP maintenance. The following applies: 1 μM. The class given is cell-based.
Test [1] deals with T1, PKMζ (Homo sapiens, UniProt Q05513).
T1 construct: made in house; host or cells: Spodoptera frugiperda Sf9 cells, baculovirus
T1 sequence (Q05513 1-409 isoform Q05513-2): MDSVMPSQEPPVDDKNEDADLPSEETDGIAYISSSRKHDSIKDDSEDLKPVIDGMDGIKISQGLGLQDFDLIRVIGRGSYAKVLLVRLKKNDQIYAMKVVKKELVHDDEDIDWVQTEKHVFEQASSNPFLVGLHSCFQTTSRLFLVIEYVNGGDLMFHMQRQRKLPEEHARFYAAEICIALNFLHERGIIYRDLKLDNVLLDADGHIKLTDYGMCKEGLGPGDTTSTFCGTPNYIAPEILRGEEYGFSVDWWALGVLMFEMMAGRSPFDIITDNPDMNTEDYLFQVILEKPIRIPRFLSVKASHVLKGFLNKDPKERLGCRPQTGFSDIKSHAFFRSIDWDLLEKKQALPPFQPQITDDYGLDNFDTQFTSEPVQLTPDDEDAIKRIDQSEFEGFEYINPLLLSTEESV
The experiment in a line: Inhibition of PKMζ (IC50). In kind it is biochemical.

The target of another test is PKC gamma (Homo sapiens, UniProt P05129). Put plainly: Inhibition of PKC gamma (IC50). The class given is biochemical.
Test [2] relates to AMPA/kainate EPSCs in CA1 pyramidal cells. Put plainly: Intracellular perfusion of PKMζ into CA1 pyramidal cells, whole-cell recording of evoked EPSCs. In kind it is cell-based, Sprague-Dawley rats. The protocol: PKMζ, purified from a baculovirus/Sf9 expression system to near homogeneity, was perfused into a CA1 pyramidal cell through a whole cell recording pipette (FIGS. 1A-1B). […] In order to isolate AMPA/kainate responses, the cell, recorded at the soma, was voltage-clamped at the IPSC reversal potential (˜−70) and Cs-gluconate-based electrode solution was used (to block GABAB effects). […] Over 5-10 min, there was ˜60% increase in AMPA/kainate EPSCs, which then stabilized. In contrast, inactivated PKMζ had no effect.
Hippocampal slices were prepared from Sprague-Dawley rats as described in Example 2. Patch electrodes were pulled (two-stage) from […] O.D. borosilicate glass (World Precision Instruments, Sarasota, Fla.) on a Narishige PP-83 vertical puller. Recording pipettes had tip resistances of 2-5 MΩ and contain (in mM): Cs-gluconate or K-gluconate 130-; MgCl2, 2; CaCl2, 2; EGTA, 10; HEPES, 10; Na-ATP, 2; pH adjusted to 7.25 with either CsOH or KOH. […] Cesium was used to block potassium currents, including slow GABAB IPSCs. Electrode solutions included QX-314 (10 mM) to block […] currents to prevent cell spike discharges at depolarized holding potentials. Whole-cell recordings were obtained from CA1 pyramidal cells using blind patch techniques. The recording pipette was slowly advanced through the tissue, with brief voltage steps (−10 mV, 10 ms) applied to monitor electrode resistance. Once a deflection in the electrode's current response was detected signifying contact with the membrane of the target cell soma, slight negative pressure was applied to form a cell-electrode seal of >1 GΩ.
Membrane breakthrough was accomplished with either additional suction or current pulses. […] Signals were recorded under voltage-clamp with an Axoclamp 2A amplifier (Axon Instruments, Foster City, Calif.). Resting input resistance was measured from the current response to a −10 mV voltage step from holding potential. […]
The effects of PKMζ cell injection on excitatory synaptic currents were assessed by including the kinase in the whole-cell pipette and measuring EPSC amplitude over time. […]

The target in test [3] is T1, PKMζ. Put plainly: Inhibition of phosphorylation of exogenous substrates by various protein kinases (specificity of chelerythrine). The class given is biochemical. The following applies: versus PKC alpha, PKC epsilon (MBP substrate), CaM-kinase II (Syntide). An excerpt:
PKCA is PKC alpha phosphorylation of myelin basic protein (MBP). PKCE is PKC epsilon phosphorylation of MBP. PKM is PKMζ phosphorylation of MBP. CKII is Ca^2+-calmodulin-dependent protein kinase II phosphorylation of Syntide® (Calbiochem, San Diego, Calif.) peptide substrate.

Regarding `CCCCCCCCCCCCCC(=O)N[C@@H](CO)C(=O)N[C@H](C(=O)N[C@@H](Cc1ccc(O)cc1)C(=O)N[C@@H](CCCNC(=N)N)C(=O)N[C@@H](CCCNC(=N)N)C(=O)NCC(=O)N[C@@H](C)C(=O)N[C@@H](CCCNC(=N)N)C(=O)N[C@@H](CCCNC(=N)N)C(=O)N[C@@H](Cc1c[nH]c2ccccc12)C(=O)N[C@@H](CCCNC(=N)N)C(=O)N[C@@H](CCCCN)C(=O)N[C@@H](CC(C)C)C(=O)O)[C@@H](C)CC` [MZIP, myr-Ser-Ile-Tyr-Arg-Arg-Gly-Ala-Arg-Arg-Trp-Arg-Lys-Leu-OH] (HELM PEPTIDE1{[CCCCCCCCCCCCCC(=O)[*:2]].S.I.Y.R.R.G.A.R.R.W.R.K.L}$$$$V2.0), the “effect on LTP maintenance” value in the test on LTP maintenance is listed as “reverses LTP maintenance”. Moreover, the results for the IC50 at PKMζ [1] and at PKC gamma were 0.01 to 0.1 µM and 10 µM, respectively.

Regarding `COc1ccc2c(c[n+](C)c3c4cc5c(cc4ccc23)OCO5)c1OC` [chelerythrine], in test [2] (3 nM PKM in pipette, chelerythrine 1 uM in bath), the “reversal of PKMζ-induced increases in synaptically evoked AMPA/kainate responses” value is on record as “reversible”. In addition, at PKMζ [3], the “selectivity as an inhibitor of PKM activity relative to other protein kinases” value is “greater than 10 fold”.

Take “PKMζ: independent catalytic domain of the PKCζ isoform, purified from a baculovirus/Sf9 expression system”: in test [2] (about 0.8 nM PKMζ in whole cell pipette, over 5-10 min, then stabilized, voltage-clamped ~-70), the “increase in AMPA/kainate EPSCs” value was around 60%. For the same compound, the “potency in potentiation of AMPA/kainate currents relative to CaM-kinase II” value in test [2] (compared with reported concentration of autoactive thiophosphorylated CaM-kinase II) is 200- to 1000 fold.
